Legend:
PURA = target: T1, PURA (Rattus norvegicus, UniProt A0A8I5YBE8); test: biolayer interferometry, single concentration; type: binding; details: 30 °C, His-tagged PURA immobilized
T1 sequence (A0A8I5YBE8 1-321): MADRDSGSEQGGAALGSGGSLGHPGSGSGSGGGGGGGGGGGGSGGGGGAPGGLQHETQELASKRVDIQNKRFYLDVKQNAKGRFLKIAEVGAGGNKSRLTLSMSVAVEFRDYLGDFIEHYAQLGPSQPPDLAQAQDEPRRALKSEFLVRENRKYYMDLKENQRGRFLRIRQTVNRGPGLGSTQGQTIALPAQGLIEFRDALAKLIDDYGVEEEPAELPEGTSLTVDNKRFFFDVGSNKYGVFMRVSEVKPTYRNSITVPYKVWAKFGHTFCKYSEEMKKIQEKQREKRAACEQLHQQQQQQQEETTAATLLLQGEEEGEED

[1] = target: T2, Pur-alpha (PURA), wild type, recombinant His-tagged (rat, UniProt A0A8I5YBE8 1-321); test: BLI
T2 sequence (looked up): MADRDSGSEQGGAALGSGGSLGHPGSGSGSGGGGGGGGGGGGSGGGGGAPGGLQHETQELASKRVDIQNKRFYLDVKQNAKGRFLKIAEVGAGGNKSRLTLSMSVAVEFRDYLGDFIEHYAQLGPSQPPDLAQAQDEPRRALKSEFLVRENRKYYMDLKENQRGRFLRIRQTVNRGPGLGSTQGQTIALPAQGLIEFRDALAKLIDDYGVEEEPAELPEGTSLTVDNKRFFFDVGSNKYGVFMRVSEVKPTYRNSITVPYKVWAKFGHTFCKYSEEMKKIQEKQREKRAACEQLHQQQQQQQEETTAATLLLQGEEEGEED

Molecule | wavelength shift at 300 μM (PURA) | Kd [1]
CC(C)=CCC[C@](C)(O[C@@H]1O[C@H](CO)[C@@H](O)[C@H](O)[C@H]1O)[C@H]1CC[C@]2(C)[C@@H]1[C@H](O)C[C@@H]1[C@@]3(C)CC[C@H](O)C(C)(C)[C@@H]3CC[C@]12C [CK] | The direct binding strength of PURA to Rb1,Re, Rh1, Rg1, F1, Rd, Rh2,CK, PPD | –
CC(C)=CCC[C@](C)(O)[C@H]1CC[C@]2(C)[C@@H]1[C@H](O)C[C@@H]1[C@@]3(C)CC[C@H](O[C@@H]4O[C@H](CO)[C@@H](O)[C@H](O)[C@H]4O)C(C)(C)[C@@H]3CC[C@]12C [Rh2] | The direct binding strength of PURA to Rb1,Re, Rh1, Rg1, F1, Rd, Rh2,CK, PPD | –
CC(C)=CCC[C@](C)(O)[C@H]1CC[C@]2(C)[C@@H]1[C@H](O)C[C@@H]1[C@@]3(C)CC[C@H](O)C(C)(C)[C@@H]3[C@@H](O[C@@H]3O[C@H](CO)[C@@H](O)[C@H](O)[C@H]3O)C[C@]12C [Rh1] | The direct binding strength of PURA to Rb1,Re, Rh1, Rg1, F1, Rd, Rh2,CK, PPD | –
CC(C)=CCC[C@](C)(O[C@@H]1O[C@H](CO)[C@@H](O)[C@H](O)[C@H]1O)[C@H]1CC[C@]2(C)[C@@H]1[C@H](O)C[C@@H]1[C@@]3(C)CC[C@H](O)C(C)(C)[C@@H]3[C@@H](O)C[C@]12C [F1] | The direct binding strength of PURA to Rb1,Re, Rh1, Rg1, F1, Rd, Rh2,CK, PPD | –
Pur-beta (PURB) (natural protein, UniProt Q68A21 1-315, looked up) MADGDSGSERGGGGPGSFQPAPRGGGGPGGEQETQELASKRLDIQNKRFYLDVKQNAKGRFLKIAEVGAGGSKSRLTLSMAVAAEFRDSLGDFIEHYAQLGPSSPEQLAAGAEEGGGPRRALKSEFLVRENRKYYLDLKENQRGRFLRIRQTVNRGGGGFGGGPGPGGLQSGQTIALPAQGLIEFRDALAKLIDDYGGEDDELAGGPGGGAGGPGGGLYGELPEGTSITVDSKRFFFDVGCNKYGVFLRVSEVKPSYRNAITVPFKAWGKFGGAFCRYADEMKEIQERQRDKLYERRGGGSGGGDESEGEEVDED | – | 1930 nM

From PMC10499581 (Journal of Ginseng Research, 2023)
